In ChEMBL document CHEMBL1135773, “Purine and pyrimidine (P2) receptors as drug targets” (J Med Chem, 2002):

Tests used:
P2Y purinoceptor 1 [1] = target: P2Y purinoceptor 1 (Meleagris gallopavo, UniProt P49652); assay: Evaluated for antagonist activity agonist phospholipase C coupled P2Y purinoceptor 1 (P2Y1) of turkey erythrocytes; assay type: functional
P2X purinoceptor 2 [2] = target: T1, P2X purinoceptor 2 (Rattus norvegicus, UniProt P49653); assay: Antagonist activity against recombinant rat receptor P2X purinoceptor 2 (P2X2) at 10 uM, expressed in Xenopus oocytes; assay type: functional, cell-based, Oocyte
T1 sequence (P49653 whole entry): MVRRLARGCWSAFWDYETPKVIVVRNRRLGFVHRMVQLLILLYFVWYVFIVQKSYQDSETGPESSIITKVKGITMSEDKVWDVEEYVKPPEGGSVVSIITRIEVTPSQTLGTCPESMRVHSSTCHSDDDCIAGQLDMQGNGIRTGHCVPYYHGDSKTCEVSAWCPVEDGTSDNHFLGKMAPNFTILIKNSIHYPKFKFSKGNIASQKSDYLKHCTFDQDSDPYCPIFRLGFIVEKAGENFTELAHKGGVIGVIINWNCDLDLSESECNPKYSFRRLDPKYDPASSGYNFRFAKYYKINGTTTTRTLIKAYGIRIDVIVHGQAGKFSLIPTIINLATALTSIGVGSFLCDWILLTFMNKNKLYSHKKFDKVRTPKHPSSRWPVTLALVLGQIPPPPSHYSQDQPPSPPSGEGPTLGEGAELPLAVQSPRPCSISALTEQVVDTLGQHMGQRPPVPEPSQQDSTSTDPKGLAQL

P2Y purinoceptor 12 = P2Y purinoceptor 12 (Rattus norvegicus, UniProt Q9EPX4); assay: Antagonist activity against phospholipase C coupled rat P2Y purinoceptor 12 (P2Y12); assay type: functional
P2Y purinoceptor 2 [3] = target: T2, P2Y purinoceptor 2 (Homo sapiens, UniProt P41231); assay: Evaluated for agonist activity against phospholipase C coupled recombinant human P2Y purinoceptor 2 (P2Y2); assay type: functional
P2X purinoceptor 4 [4] = target: T3, P2X purinoceptor 4 (Homo sapiens, UniProt Q99571); assay: Antagonist activity against recombinant human P2X purinoceptor 4 (P2X4); assay type: functional
T3 sequence (Q99571 whole entry): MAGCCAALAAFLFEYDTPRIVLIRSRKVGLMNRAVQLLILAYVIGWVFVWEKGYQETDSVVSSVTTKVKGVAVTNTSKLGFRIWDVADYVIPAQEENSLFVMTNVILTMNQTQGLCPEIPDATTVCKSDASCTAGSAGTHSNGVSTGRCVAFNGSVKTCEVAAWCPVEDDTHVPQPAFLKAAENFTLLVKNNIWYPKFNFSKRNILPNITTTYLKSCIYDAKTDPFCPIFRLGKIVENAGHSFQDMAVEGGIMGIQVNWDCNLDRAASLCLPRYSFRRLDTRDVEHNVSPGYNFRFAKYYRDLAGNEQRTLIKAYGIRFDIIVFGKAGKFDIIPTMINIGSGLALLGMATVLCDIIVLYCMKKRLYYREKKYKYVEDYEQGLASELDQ

P2Y purinoceptor 11 = target: T4, P2Y purinoceptor 11 (Homo sapiens, UniProt Q96G91); assay: Agonist activity against phospholipase C coupled human P2Y purinoceptor 11 (P2Y11); assay type: functional
T4 sequence (Q96G91 whole entry): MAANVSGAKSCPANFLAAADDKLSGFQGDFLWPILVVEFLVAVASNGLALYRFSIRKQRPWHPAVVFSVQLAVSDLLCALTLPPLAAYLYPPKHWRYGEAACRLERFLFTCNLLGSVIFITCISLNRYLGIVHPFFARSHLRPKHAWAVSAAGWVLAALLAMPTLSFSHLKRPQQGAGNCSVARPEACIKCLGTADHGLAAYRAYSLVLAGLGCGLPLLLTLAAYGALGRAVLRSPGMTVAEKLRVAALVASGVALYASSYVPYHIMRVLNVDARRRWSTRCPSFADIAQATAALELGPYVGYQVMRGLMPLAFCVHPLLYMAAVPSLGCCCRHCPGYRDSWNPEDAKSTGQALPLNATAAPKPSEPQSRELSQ

P2Y purinoceptor 1 [5] = target: T5, P2Y purinoceptor 1 (Homo sapiens, UniProt P47900); assay: Dissociation constant at P2Y purinoceptor 1 (P2Y1) from guinea pig taenia coli; design: species or system Cavia porcellus; conditions: target entry is the homologue from another species
P2X purinoceptor 1 [6] = target: T6, P2X purinoceptor 1 (Rattus norvegicus, UniProt P47824); assay: The compound was evaluated for antagonist activity against P2X purinoceptor 1 (P2X1) from rat vas deferens; assay type: functional
T6 sequence (P47824 whole entry): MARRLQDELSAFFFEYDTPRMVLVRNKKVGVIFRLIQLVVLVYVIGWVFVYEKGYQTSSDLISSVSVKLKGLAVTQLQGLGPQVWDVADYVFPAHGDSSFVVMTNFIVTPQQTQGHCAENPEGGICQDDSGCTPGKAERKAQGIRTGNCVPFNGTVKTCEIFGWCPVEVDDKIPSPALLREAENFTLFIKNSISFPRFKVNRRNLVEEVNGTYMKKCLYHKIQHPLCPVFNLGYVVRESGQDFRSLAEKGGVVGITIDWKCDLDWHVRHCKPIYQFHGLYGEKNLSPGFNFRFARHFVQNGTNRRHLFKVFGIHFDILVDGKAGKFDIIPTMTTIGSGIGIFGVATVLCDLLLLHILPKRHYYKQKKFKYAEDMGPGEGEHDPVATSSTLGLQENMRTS

P2Y purinoceptor 6 = P2Y purinoceptor 6 (Homo sapiens, UniProt Q15077); assay: The compound was evaluated for agonist activity against phospholipase C coupled recombinant human P2Y purinoceptor 6 (P2Y6); assay type: functional; conditions: concentration not given here
P2X purinoceptor 7 = P2X purinoceptor 7 (Rattus norvegicus, UniProt Q64663); assay: The compound was evaluated for antagonist activity against recombinant rat P2X purinoceptor 7 (P2X7); assay type: functional
P2X purinoceptor 5 = target: T7, P2X purinoceptor 5 (Rattus norvegicus, UniProt P51578); assay: Antagonist activity against recombinant rat P2X purinoceptor 5 (P2X5); assay type: functional
T7 sequence (P51578 whole entry): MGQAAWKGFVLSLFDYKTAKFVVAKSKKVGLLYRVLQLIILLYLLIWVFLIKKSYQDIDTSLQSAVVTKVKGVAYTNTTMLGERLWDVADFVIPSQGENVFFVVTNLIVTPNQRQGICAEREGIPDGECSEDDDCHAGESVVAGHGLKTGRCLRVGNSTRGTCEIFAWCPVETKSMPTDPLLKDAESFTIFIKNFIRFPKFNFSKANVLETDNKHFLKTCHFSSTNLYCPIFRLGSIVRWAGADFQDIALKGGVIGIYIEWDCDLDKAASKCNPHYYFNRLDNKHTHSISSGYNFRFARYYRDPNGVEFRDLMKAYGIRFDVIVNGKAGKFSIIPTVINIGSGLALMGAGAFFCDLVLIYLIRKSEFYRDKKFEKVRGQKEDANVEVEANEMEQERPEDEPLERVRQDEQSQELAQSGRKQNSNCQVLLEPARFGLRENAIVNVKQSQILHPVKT

P2X purinoceptor 4 [7] = target: T8, P2X purinoceptor 4 (Rattus norvegicus, UniProt P51577); assay: Antagonist activity against recombinant rat P2X purinoceptor 4 (P2X4) at 3 uM, expressed in Xenopus oocytes; assay type: functional, cell-based, Oocyte
T8 sequence (P51577 whole entry): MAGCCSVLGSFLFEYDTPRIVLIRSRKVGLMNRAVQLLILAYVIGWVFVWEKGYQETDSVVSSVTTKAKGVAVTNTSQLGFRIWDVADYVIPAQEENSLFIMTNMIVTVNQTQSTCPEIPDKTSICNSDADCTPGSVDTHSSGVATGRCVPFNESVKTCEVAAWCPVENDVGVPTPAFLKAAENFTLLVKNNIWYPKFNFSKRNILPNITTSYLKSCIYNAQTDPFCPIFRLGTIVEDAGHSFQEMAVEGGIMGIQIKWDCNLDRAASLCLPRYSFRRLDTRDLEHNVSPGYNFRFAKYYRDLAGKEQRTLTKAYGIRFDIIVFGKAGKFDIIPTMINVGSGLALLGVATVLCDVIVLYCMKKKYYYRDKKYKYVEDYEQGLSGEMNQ

P2Y purinoceptor 4 = P2Y purinoceptor 4 (Homo sapiens, UniProt P51582); assay: The compound was evaluated for antagonist activity against phospholipase C coupled recombinant human P2Y purinoceptor 4 (P2Y4); assay type: functional
[8] = target: P2Y purinoceptor 1 (Rattus norvegicus) (UniProt P49651); assay: Evaluated for agonist activity against phospholipase C coupled P2Y purinoceptor 1 (P2Y1) of rat erythrocytes
P2X purinoceptor 1 [9] = target: T6, P2X purinoceptor 1; assay: The compound was evaluated for antagonist activity against recombinant rat P2X purinoceptor 1 (P2X1) at 1 uM, expressed in Xenopus oocytes; assay type: functional, cell-based, Oocyte
P2Y purinoceptor 1 [10] = target: T5, P2Y purinoceptor 1; assay: Evaluated for agonist activity against phospholipase C coupled P2Y purinoceptor 1 (P2Y1) of human erythrocytes; assay type: functional
P2X purinoceptor 6 = P2X purinoceptor 6 (Rattus norvegicus, UniProt P51579); assay: Antagonist activity against recombinant rat P2X purinoceptor 6 (P2X6 ); assay type: functional
P2X purinoceptor 2 [11] = target: T1, P2X purinoceptor 2; assay: The compound was evaluated for antagonist activity against recombinant rat receptor P2X purinoceptor 2 (P2X2) at 30 uM, expressed in Xenopus oocytes; assay type: functional, cell-based, Oocyte
P2Y purinoceptor 2 [12] = target: T2, P2Y purinoceptor 2; assay: The compound was evaluated for antagonistic activity against P2Y purinoceptor 2 (P2Y2); assay type: functional
[13] = The compound was evaluated for antagonist activity against P2X purinoceptor; assay type: functional

T2 sequence (P41231 whole entry): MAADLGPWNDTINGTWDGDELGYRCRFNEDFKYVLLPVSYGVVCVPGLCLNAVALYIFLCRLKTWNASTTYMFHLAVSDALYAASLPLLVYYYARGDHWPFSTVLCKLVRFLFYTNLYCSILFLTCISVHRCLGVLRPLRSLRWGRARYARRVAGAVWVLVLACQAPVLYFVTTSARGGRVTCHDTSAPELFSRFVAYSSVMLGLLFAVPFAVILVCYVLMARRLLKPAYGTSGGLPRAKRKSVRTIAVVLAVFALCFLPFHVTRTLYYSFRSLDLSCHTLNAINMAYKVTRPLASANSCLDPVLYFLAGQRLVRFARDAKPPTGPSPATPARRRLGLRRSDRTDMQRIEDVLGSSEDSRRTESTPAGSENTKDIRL
Chain of P2Y purinoceptor 12 (Q9EPX4 whole entry): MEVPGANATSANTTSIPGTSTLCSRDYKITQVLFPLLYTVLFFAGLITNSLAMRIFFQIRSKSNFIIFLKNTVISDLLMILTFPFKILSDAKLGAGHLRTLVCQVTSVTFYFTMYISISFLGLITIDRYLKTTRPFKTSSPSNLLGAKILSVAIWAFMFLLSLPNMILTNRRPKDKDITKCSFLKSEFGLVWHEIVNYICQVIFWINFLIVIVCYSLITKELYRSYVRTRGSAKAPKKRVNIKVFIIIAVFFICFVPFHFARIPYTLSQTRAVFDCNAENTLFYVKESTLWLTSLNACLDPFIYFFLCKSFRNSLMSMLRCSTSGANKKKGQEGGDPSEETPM
T5 sequence (P47900 whole entry): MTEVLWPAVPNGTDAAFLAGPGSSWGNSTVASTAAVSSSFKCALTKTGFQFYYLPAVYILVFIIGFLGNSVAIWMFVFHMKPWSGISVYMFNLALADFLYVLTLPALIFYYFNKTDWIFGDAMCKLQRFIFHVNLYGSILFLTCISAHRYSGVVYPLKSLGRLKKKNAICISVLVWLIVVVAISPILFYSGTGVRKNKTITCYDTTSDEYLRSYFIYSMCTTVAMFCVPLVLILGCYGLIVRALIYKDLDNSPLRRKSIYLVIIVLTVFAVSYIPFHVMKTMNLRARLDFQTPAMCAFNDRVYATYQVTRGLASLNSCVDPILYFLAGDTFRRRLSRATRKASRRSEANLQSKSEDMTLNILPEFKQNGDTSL
Chain of P2Y purinoceptor 1 (Rattus norvegicus) (P49651 whole entry, looked up): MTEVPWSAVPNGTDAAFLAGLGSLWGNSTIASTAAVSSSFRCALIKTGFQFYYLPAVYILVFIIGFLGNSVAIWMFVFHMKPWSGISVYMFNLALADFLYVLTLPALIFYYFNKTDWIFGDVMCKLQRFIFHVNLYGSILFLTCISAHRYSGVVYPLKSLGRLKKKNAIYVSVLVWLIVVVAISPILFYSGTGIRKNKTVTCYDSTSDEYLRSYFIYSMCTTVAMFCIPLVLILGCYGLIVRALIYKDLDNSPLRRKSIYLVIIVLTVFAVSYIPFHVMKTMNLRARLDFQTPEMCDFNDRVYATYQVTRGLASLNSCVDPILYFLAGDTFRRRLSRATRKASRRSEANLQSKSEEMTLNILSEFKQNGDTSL
Chain of P2Y purinoceptor 4 (P51582 whole entry): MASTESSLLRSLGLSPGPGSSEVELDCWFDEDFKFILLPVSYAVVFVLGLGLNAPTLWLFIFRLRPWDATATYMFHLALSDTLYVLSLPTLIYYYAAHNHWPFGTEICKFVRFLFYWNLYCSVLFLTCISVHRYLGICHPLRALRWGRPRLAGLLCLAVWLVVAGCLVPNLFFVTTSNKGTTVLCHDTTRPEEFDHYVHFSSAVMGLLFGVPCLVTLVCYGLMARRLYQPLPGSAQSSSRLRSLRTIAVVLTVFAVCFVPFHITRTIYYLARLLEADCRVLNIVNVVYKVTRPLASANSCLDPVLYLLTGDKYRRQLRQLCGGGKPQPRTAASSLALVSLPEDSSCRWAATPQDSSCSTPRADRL
Chain of P2X purinoceptor 6 (P51579 whole entry): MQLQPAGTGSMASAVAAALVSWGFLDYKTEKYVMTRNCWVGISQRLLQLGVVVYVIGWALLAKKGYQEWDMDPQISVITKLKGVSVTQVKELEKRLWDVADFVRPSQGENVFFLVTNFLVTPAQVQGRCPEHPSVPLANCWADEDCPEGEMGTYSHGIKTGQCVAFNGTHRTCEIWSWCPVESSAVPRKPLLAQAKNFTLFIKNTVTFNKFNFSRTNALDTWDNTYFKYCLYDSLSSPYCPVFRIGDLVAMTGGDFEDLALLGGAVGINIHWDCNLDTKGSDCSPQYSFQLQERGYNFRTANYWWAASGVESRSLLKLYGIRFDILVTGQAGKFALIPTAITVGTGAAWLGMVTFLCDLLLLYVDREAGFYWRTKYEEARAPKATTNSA
Chain of P2Y purinoceptor 1 (Meleagris gallopavo, UniProt P49652) (P49652 whole entry): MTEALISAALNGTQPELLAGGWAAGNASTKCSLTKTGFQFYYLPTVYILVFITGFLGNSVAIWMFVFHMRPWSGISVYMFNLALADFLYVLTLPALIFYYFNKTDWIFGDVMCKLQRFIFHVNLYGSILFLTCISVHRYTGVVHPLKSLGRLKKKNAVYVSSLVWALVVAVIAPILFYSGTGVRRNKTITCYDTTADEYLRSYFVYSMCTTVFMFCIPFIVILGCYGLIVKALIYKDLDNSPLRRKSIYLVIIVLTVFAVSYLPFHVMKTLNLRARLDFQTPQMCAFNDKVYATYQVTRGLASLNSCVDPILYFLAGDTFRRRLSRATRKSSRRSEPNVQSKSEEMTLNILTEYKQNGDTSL
Chain of P2Y purinoceptor 6 (Q15077 whole entry): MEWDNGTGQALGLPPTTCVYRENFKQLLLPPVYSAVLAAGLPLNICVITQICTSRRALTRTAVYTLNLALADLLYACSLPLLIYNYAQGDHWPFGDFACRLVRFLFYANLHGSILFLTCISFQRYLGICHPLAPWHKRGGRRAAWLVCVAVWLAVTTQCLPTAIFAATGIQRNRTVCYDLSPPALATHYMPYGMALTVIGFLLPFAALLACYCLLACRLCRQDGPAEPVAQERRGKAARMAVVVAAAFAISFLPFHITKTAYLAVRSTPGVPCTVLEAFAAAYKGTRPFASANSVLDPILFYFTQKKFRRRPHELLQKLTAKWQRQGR
Chain of P2X purinoceptor 7 (Q64663 whole entry): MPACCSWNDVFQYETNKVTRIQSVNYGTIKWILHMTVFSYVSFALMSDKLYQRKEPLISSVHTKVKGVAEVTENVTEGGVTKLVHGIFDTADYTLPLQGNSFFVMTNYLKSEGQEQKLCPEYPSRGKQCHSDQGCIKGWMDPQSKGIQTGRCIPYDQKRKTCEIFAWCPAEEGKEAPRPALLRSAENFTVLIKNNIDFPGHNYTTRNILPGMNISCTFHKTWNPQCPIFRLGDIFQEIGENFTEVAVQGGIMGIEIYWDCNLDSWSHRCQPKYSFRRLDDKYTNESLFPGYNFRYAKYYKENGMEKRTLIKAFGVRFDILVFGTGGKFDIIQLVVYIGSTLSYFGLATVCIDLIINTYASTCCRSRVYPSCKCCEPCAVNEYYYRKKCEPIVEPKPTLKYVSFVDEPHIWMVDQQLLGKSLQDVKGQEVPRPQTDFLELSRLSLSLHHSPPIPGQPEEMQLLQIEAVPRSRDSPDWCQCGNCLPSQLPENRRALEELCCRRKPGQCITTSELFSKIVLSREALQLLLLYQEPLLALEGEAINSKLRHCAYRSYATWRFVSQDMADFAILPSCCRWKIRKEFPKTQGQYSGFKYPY

In the case of `Nc1c(S(=O)(=O)O)cc(Nc2ccc(Nc3nc(Cl)nc(Nc4cccc(S(=O)(=O)O)c4)n3)c(S(=O)(=O)O)c2)c2c1C(=O)c1ccccc1C2=O` [RB 2], the EC50 (P2Y purinoceptor 1 [1]) is reported as over 10 µM, the EC50 (P2X purinoceptor 2 [2]) is reported as 0.36 µM and the EC50 (P2Y purinoceptor 12) is reported as 0.025 µM. The EC50 (P2Y purinoceptor 2 [3]) was over 100 µM, the EC50 (P2X purinoceptor 4 [4]) was 128 µM and the EC50 (P2Y purinoceptor 11) was over 100 µM.

With `C=CS(=O)(=O)c1cccc(Nc2cc(S(=O)(=O)O)c(N)c3c2C(=O)c2ccccc2C3=O)c1` [UNIBLUE A] the Kd (P2Y purinoceptor 1 [5]) was over 100 µM and the IC50 (P2X purinoceptor 1 [6]) was 7.5 µM.

For `Cc1nc(/N=N/c2ccc(S(=O)(=O)O)cc2S(=O)(=O)O)c(COP(=O)(O)O)c(C=O)c1O`, the inhibition (P2Y purinoceptor 6) was 69%, the EC50 (P2X purinoceptor 7) was 62 µM and the EC50 (P2X purinoceptor 5) was 2.6 µM. The EC50 (P2X purinoceptor 4 [7]) was over 10 µM, the EC50 (P2Y purinoceptor 4) was over 10 µM and the EC50 [8] was 18.2 µM. It also gave an EC50 (P2Y purinoceptor 12) of over 100 µM, an EC50 (P2X purinoceptor 1 [9]) of 0.099 µM and an EC50 (P2Y purinoceptor 2 [3]) of over 10 µM. For the same compound, the EC50 (P2Y purinoceptor 1 [10]) was 1 µM, the EC50 (P2X purinoceptor 6) was over 100 µM and the EC50 (P2X purinoceptor 2 [11]) was 12 µM.

`Cc1cc(-c2ccc(/N=N/c3c(S(=O)(=O)O)cc4cc(S(=O)(=O)O)cc(N)c4c3O)c(C)c2)ccc1/N=N/c1c(S(=O)(=O)O)cc2cc(S(=O)(=O)O)cc(N)c2c1O` [TRYPAN BLUE] gave an IC50 (P2Y purinoceptor 2 [12]) of 171 µM and an IC50 [13] of 386 µM.
